In patent US20250296959A1, “B7-H3 TARGETING PEPTIDES AND CONSTRUCTS THEREOF” (Mariana Oncology Inc., priority 2024, published 2025):
pKd: −log10 of the molar value. Where two headings read alike, the source gives them in different places. Starred links: 1 amine or outer side, 2 acyl side, 3 side chain; linkers in the order of their positions; H or OH if unused. Positions of bridges follow the written chain, without caps; N, C: chain ends. Non-standard residues stand in square brackets, D forms with d. Residues, ends and D or L forms follow the SMILES beside them. Groups on a side chain read outwards from the residue. *: point of attachment. X2 = O=C(O)CN1CCN(CC(=O)O)CCN(CC(=O)NCCOCCOCCOCCOCC(=O)*)CCN(CC(=O)O)CC1; Ala(1-CH2CO2H-4-piperidyl) = N[C@@H](CC1CCN(CC(=O)O)CC1)C(=O)O; Ala(piperidin-4-yl) = O=C([C@H](CC1CCN([*:3])CC1)N[*:1])[*:2]; DOTA = O=C(O)CN1CCN(CC(=O)O)CCN(CC(=O)*)CCN(CC(=O)O)CC1; Phe(4-NHCONH2) = NC(=O)Nc1ccc(C[C@H](N)C(=O)O)cc1; Trp(5-F) = N[C@@H](Cc1c[nH]c2ccc(F)cc12)C(=O)O; X1 = C[C@@H](c1ccccc1)[C@H](N[*:1])C(=O)[*:2]; Ala(4-THP) = N[C@@H](CC1CCOCC1)C(=O)O; Val(3-OH) = CC(C)(O)[C@H](N)C(=O)O; Aad = N[C@@H](CCCC(=O)O)C(=O)O; PEG4 = NCCOCCOCCOCCOCCC(=O)O; Tle = CC(C)(C)[C@H](N)C(=O)O; hLeu = CC(C)CC[C@H](N)C(=O)O

Tests used:
[1] = target: T1, human 4lg B7-H3 (Homo sapiens, UniProt Q5ZPR3); experiment: Affinity determination by surface plasmon resonance (SPR) to 4Ig B7-H3; settings: 4Ig B7-H3
T1 sequence (Q5ZPR3 29-534): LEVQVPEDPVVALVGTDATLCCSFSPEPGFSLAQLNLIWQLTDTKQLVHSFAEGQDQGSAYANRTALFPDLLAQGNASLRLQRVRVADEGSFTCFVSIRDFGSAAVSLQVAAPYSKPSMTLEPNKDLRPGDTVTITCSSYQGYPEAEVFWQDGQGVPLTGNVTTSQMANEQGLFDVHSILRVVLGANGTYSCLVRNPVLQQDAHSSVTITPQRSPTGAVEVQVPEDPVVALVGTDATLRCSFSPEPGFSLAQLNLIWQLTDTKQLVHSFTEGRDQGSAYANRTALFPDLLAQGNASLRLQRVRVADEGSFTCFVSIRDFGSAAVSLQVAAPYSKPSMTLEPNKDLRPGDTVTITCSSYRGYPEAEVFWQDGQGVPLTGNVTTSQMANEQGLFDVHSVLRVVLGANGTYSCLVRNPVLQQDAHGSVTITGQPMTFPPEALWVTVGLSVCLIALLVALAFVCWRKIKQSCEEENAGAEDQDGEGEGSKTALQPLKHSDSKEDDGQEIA

[2] = test system: Calu-6 cell line; experiment: Cell associated (bound) fraction of [177Lu]Lu-labeled peptide in Calu-6 cells; format: cell-based, Human; settings: 1 hour, 37° C.
Procedure, shortened: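 Detached B7-H3-expressing human lung cancer cells at 5 million/mL were exposed for 1 hour at 37 °C to 0.8 μCi of the 177Lu-labelled peptide, which was formulated in 1% PBSA after labelling at 80 °C, pH ~5. Supernatant and two cold washes counted as unbound, and resuspended cells gamma-counted as the cell-associated fraction.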

[3] = test system: Calu-6 cell line; experiment: Net internalization of [177Lu]Lu-labeled peptide in Calu-6 cells; format: cell-based, Human; settings: 1 hour, 37° C., glycine pH 2.5 acid wash
Procedure, shortened: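 Calu-6 cells, human non-engineered lung cancer expressing B7-H3, resuspended in 1% PBSA at 5 million cells/mL and incubated with the 177Lu-labeled conjugate (labeled at 80 °C, pH ~5, RP-HPLC checked). Gamma counting of the bound fraction, then of the pellet after two glycine pH 2.5 acid strips and NaOH lysis, gives internalized activity.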

[4] = read-out: SPR KD—37° C., 37° C. flow cell temperature

| Compound | pKd ([1]; SPR KD—25° C., 25° C. flow cell temperature) | % cell associated fraction [2] | % net internalization [3] | pKd [1, 4] | pKd ([1]; SPR KD—37° C., 37° C. flow cell temperature) |
| --- | --- | --- | --- | --- | --- |
| CC[C@H](C)[C@@H]1NC(=O)[C@@H](NC(=O)[C@H](Cc2ccc(O)cc2)NC(=O)[C@H](CCC(C)C)NC(C)=O)CSSC[C@@H](C(=O)N[C@@H](Cc2c[nH]c3ccc(F)cc23)C(=O)N[C@@H](Cc2ccccc2)C(=O)N[C@H](C(=O)N[C@H](CCCCNC(=O)COCCOCCOCCOCCNC(=O)CN2CCN(CC(=O)O)CCN(CC(=O)O)CCN(CC(=O)O)CC2)C(=O)O)C(C)(C)O)NC(=O)[C@H](Cc2ccc(O)cc2)NC(=O)[C@H](C(C)C)NC(=O)[C@H](CC(=O)O)NC(=O)[C@H](CC2CCOCC2)NC(=O)[C@H](CCCCN)NC(=O)CNC1=O [compound 308, Ac-hLeu-Y-C-Ile-G-K-ThpA-D-V-Y-C-5FW-F-hydroxyVal-dLys(PEG4-DOTA)-COOH] (Ac-[hLeu]YCIGK[Ala(4-THP)]DVYC[Trp(5-F)]F[Val(3-OH)][dK](X2)-OH; disulfide 3-11) | > 9.00 | C (%>50) | B (25<%≤50) | – | – |
| CC(=O)N[C@@H](CCC(C)C)C(=O)N[C@@H](Cc1ccc(O)cc1)C(=O)N[C@H]1CSSC[C@@H](C(=O)N[C@@H](Cc2c[nH]c3ccc(F)cc23)C(=O)N[C@@H](Cc2ccccc2)C(=O)N[C@H](C(=O)N[C@H](CCCCNC(=O)[C@H](CCCC(=O)O)NC(=O)CN2CCN(CC(=O)O)CCN(CC(=O)O)CCN(CC(=O)O)CC2)C(=O)O)C(C)(C)O)NC(=O)[C@H](Cc2ccc(O)cc2)NC(=O)[C@H](C(C)C)NC(=O)[C@H](CC(=O)O)NC(=O)[C@H](CC2CCOCC2)NC(=O)[C@H](CC2CCNCC2)NC(=O)CNC(=O)[C@H](C(C)(C)C)NC1=O [compound 464, Ac-hLeu-Y-C-Tbg-G-PipAla-ThpA-D-V-Y-C-5FW-F-hydroxyVal-dLys(hGlu-DOTA)-COOH] (Ac-[hLeu]YC[Tle]G[Ala(piperidin-4-yl)][Ala(4-THP)]DVYC[Trp(5-F)]F[Val(3-OH)][dK]([Aad-DOTA])-OH; disulfide 3-11) | – | C (%>50) | A (%≤25) | > 9.00 | – |
| CC(=O)N[C@@H](CCC(C)C)C(=O)N[C@@H](Cc1ccc(O)cc1)C(=O)N[C@H]1CSSC[C@@H](C(=O)N[C@@H](Cc2c[nH]c3ccc(F)cc23)C(=O)N[C@H](C(=O)N[C@H](C(=O)N[C@H](CCCCNC(=O)CN2CCN(CC(=O)O)CCN(CC(=O)O)CCN(CC(=O)O)CC2)C(=O)O)C(C)(C)O)[C@@H](C)c2ccccc2)NC(=O)[C@H](Cc2ccc(O)cc2)NC(=O)[C@H](C(C)C)NC(=O)[C@H](CC(=O)O)NC(=O)[C@H](CC2CCOCC2)NC(=O)[C@H](CC2CCN(CC(=O)O)CC2)NC(=O)CNC(=O)[C@H](C(C)(C)C)NC1=O [compound 497, Ac-hLeu-Y-C-Tbg-G-Pip(CH2COOH)Ala-ThpA-D-V-Y-C-5FW-[(2S, 3S)beta-Me-Phe]-hydroxyVal-dLys(DOTA)-COOH] (Ac-[hLeu]YC[Tle]G[Ala(1-CH2CO2H-4-piperidyl)][Ala(4-THP)]DVYC[Trp(5-F)][X1][Val(3-OH)][dK](DOTA)-OH; disulfide 3-11) | – | C (%>50) | A (%≤25) | > 9.00 | – |
| CC(=O)N[C@@H](CCC(C)C)C(=O)N[C@@H](Cc1ccc(O)cc1)C(=O)N[C@H]1CSSC[C@@H](C(=O)N[C@@H](Cc2c[nH]c3ccc(F)cc23)C(=O)N[C@H](C(=O)N[C@H](C(=O)N[C@H](CCCCNC(=O)CN2CCN(CC(=O)O)CCN(CC(=O)O)CCN(CC(=O)O)CC2)C(=O)O)C(C)(C)O)[C@@H](C)c2ccccc2)NC(=O)[C@H](Cc2ccc(NC(N)=O)cc2)NC(=O)[C@H](C(C)C)NC(=O)[C@H](CC(=O)O)NC(=O)[C@H](CC2CCOCC2)NC(=O)[C@H](CC2CCN(CC(=O)O)CC2)NC(=O)CNC(=O)[C@H](C(C)(C)C)NC1=O [compound 499, Ac-hLeu-Y-C-Tbg-G-Pip(CH2COOH)Ala-ThpA-D-V-Aph(Cbm)-C-5FW-[(2S, 3S)beta-Me-Phe]-hydroxyVal-dLys(DOTA)-COOH] (Ac-[hLeu]YC[Tle]G[Ala(1-CH2CO2H-4-piperidyl)][Ala(4-THP)]DV[Phe(4-NHCONH2)]C[Trp(5-F)][X1][Val(3-OH)][dK](DOTA)-OH; disulfide 3-11) | – | C (%>50) | A (%≤25) | > 9.00 | – |
| CC(=O)N[C@@H](CCC(C)C)C(=O)N[C@@H](Cc1ccc(O)cc1)C(=O)N[C@H]1CSSC[C@@H](C(=O)N[C@@H](Cc2c[nH]c3ccc(F)cc23)C(=O)N[C@@H](Cc2ccccc2)C(=O)N[C@H](C(=O)N[C@H](CCCCNC(=O)CN2CCN(CC(=O)O)CCN(CC(=O)O)CCN(CC(=O)O)CC2)C(=O)O)C(C)(C)O)NC(=O)[C@H](Cc2ccc(O)cc2)NC(=O)[C@H](C(C)C)NC(=O)[C@H](CC(=O)O)NC(=O)[C@H](CC2CCOCC2)NC(=O)[C@H](CC2CCNCC2)NC(=O)CNC(=O)[C@H](C(C)(C)C)NC1=O [compound 340, Ac-hLeu-Y-C-Tbg-G-PipAla-ThpA-D-V-Y-C-5FW-F-hydroxyVal-dLys(DOTA)-COOH] (Ac-[hLeu]YC[Tle]G[Ala(piperidin-4-yl)][Ala(4-THP)]DVYC[Trp(5-F)]F[Val(3-OH)][dK](DOTA)-OH; disulfide 3-11) | – | C (%>50) | A (%≤25) | > 9.00 | – |
| CC[C@H](C)[C@@H]1NC(=O)[C@@H](NC(=O)[C@H](Cc2ccc(O)cc2)NC(=O)[C@H](CCC(C)C)NC(C)=O)CSSC[C@@H](C(=O)N[C@@H](Cc2c[nH]c3ccc(F)cc23)C(=O)N[C@@H](Cc2ccccc2)C(=O)N[C@H](C(=O)N[C@H](CCCCNC(=O)CN2CCN(CC(=O)O)CCN(CC(=O)O)CCN(CC(=O)O)CC2)C(=O)O)C(C)(C)O)NC(=O)[C@H](Cc2ccc(O)cc2)NC(=O)[C@H](C(C)C)NC(=O)[C@H](CC(=O)O)NC(=O)[C@H](CC2CCOCC2)NC(=O)[C@H](CC2CCN(CC(=O)O)CC2)NC(=O)CNC1=O [compound 318, Ac-hLeu-Y-C-Ile-G-[Pip(CH2CO2H)Ala]-ThpA-D-V-Y-C-5FW-F-hydroxyVal-dLys(DOTA)-COOH] (Ac-[hLeu]YCIG[Ala(1-CH2CO2H-4-piperidyl)][Ala(4-THP)]DVYC[Trp(5-F)]F[Val(3-OH)][dK](DOTA)-OH; disulfide 3-11) | – | B (25<%≤50) | A (%≤25) | 8.00 to 9.00 | – |
| CC(=O)N[C@@H](CCC(C)C)C(=O)N[C@@H](Cc1ccc(O)cc1)C(=O)N[C@H]1CSSC[C@@H](C(=O)N[C@@H](Cc2c[nH]c3ccc(F)cc23)C(=O)N[C@@H](Cc2ccccc2)C(=O)N[C@H](C(=O)N[C@H](CCCCNC(=O)CCOCCOCCOCCOCCNC(=O)CN2CCN(CC(=O)O)CCN(CC(=O)O)CCN(CC(=O)O)CC2)C(=O)O)C(C)(C)O)NC(=O)[C@H](Cc2ccc(O)cc2)NC(=O)[C@H](C(C)C)NC(=O)[C@H](CC(=O)O)NC(=O)[C@H](CC2CCOCC2)NC(=O)[C@H](CC2CCNCC2)NC(=O)CNC(=O)[C@H](C(C)(C)C)NC1=O [compound 465, Ac-hLeu-Y-C-Tbg-G-PipAla-ThpA-D-V-Y-C-5FW-F-hydroxyVal-dLys(PEG4-DOTA)-COOH] (Ac-[hLeu]YC[Tle]G[Ala(piperidin-4-yl)][Ala(4-THP)]DVYC[Trp(5-F)]F[Val(3-OH)][dK]([PEG4-DOTA])-OH; disulfide 3-11) | – | B (25<%≤50) | A (%≤25) | > 9.00 | – |
| CC(=O)N[C@@H](CCC(C)C)C(=O)N[C@@H](Cc1ccc(O)cc1)C(=O)N[C@H]1CSSC[C@@H](C(=O)N[C@@H](Cc2c[nH]c3ccc(F)cc23)C(=O)N[C@@H](Cc2ccccc2)C(=O)N[C@H](C(=O)N[C@H](CCCCNC(=O)CN2CCN(CC(=O)O)CCN(CC(=O)O)CCN(CC(=O)O)CC2)C(N)=O)C(C)(C)O)NC(=O)[C@H](Cc2ccc(O)cc2)NC(=O)[C@H](C(C)C)NC(=O)[C@H](CC(=O)O)NC(=O)[C@H](CC2CCOCC2)NC(=O)[C@H](CCCCN)NC(=O)CNC(=O)[C@H](C(C)(C)C)NC1=O [compound 366, Ac-hLeu-Y-C-Tbg-G-K-ThpA-D-V-Y-C-5FW-F-hydroxyVal-dLys(DOTA)-CONH2] (Ac-[hLeu]YC[Tle]GK[Ala(4-THP)]DVYC[Trp(5-F)]F[Val(3-OH)][dK](DOTA)-NH2; disulfide 3-11) | – | B (25<%≤50) | A (%≤25) | – | > 9.00 |
